In BindingDB's records for doi:10.1016/s0960-894x(99)00034-7 (University of Tokyo, 1999) one finds IC50 data, which are given here for 1 compound.

This assay deals with Dipeptidyl peptidase 4 (Homo sapiens, UniProt P27487). The assay can be described thus: Inhibitory activity against Dipeptidylpeptidase IV (DPP IV) in human acute lymphoblastic leukemia MOLT-4 cell line.

Some results are limits rather than exact numbers.

Sequence of Dipeptidyl peptidase 4 (P27487 whole entry): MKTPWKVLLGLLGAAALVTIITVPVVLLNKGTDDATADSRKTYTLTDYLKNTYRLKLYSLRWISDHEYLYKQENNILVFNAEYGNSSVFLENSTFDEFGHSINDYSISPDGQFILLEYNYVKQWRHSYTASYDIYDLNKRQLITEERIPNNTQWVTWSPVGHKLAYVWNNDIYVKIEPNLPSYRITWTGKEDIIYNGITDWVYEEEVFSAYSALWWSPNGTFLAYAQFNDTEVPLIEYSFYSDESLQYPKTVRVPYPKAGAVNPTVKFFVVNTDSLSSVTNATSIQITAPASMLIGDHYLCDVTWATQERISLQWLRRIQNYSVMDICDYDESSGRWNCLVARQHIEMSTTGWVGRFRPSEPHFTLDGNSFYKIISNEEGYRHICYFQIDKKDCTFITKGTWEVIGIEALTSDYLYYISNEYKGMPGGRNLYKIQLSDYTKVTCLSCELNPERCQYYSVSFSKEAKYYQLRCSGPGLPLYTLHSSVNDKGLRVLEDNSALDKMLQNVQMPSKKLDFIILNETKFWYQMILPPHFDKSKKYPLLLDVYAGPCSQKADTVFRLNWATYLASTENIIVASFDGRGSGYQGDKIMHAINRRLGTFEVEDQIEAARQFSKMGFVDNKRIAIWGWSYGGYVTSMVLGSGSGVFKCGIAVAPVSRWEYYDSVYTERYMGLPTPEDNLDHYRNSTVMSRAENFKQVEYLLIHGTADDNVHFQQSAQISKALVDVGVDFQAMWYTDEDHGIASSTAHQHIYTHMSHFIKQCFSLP

As to `CC(C)C[C@H](NC(=O)[C@@H](O)[C@H](N)Cc1ccccc1)C(=O)O`, the 50% inhibitory concentration (IC50) is greater than 324 µM.

The term IC50 denotes the point on the concentration scale where inhibition reaches its midpoint.
